Biological target: human active recombinant p38α-6His tagged (Homo sapiens, UniProt Q16539)
Assay: P38 Alpha Enzyme Assay (AlphaScreen, biotinylated-ATF2 substrate);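 note: 0.5 nM final p38α, reaction started with ATP and run 45 min at 37 °C, phospho-ATF2 read by antibody-based AlphaScreen, background wells quenched with EDTA before ATP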
Type: biochemical
Conditions: p38 alpha enzyme inhibition; means of replicate determinations; 4 h pre-incubation at 37° C.; SD of assay 0.2-0.3 log units

human active recombinant p38α-6His tagged, sequence (Q16539 whole entry): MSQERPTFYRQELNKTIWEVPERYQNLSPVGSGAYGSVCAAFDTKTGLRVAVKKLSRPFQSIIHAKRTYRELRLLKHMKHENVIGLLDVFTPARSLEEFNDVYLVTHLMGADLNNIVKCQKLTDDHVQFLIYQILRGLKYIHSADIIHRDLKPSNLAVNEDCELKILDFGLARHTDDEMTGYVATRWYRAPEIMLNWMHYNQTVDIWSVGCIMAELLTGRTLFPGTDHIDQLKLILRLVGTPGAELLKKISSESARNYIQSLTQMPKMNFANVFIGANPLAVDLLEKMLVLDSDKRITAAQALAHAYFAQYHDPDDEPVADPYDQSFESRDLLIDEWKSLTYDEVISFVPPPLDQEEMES

Row | pIC50 | IC50 [µM] | Compound
1 | 9.9 | – | CCNCCOc1ccccc1C1(Nc2nccn(-c3cc(C(=O)NC4CC4)ccc3C)c2=O)CCC1 [Example 269, N-Cyclopropyl-3-[3-[[1-[2-[2-(ethylamino)ethoxy]phenyl]cyclobutyl]amino]-2-oxo-1(2H)-pyrazinyl]-4-methyl-benzamide]
2 | 8.8 | – | Cc1ccc(C(=O)NC2CC2)cc1-n1ccnc(N[C@@H](c2ccccc2)[C@@H](C)CN2CCNC(=O)C2)c1=O [Example 178, N-Cyclopropyl-4-methyl-3-[3-[[(1R,2S)-2-methyl-3-(3-oxo-1-piperazinyl)-1-phenylpropyl]amino]-2-oxo-1(2H)-pyrazinyl]-benzamide]
3 | 6.8 | – | Cc1ccc(C(=O)NC2CC2)cc1-n1ccnc(NCCc2cccc(O)c2)c1=O [Example 71, N-Cyclopropyl-3-[3-[[2-(3-hydroxyphenyl)ethyl]amino]-2-oxo-1(2H)-pyrazinyl]-4-methyl-benzamide]
4 | 9 | – | Cc1cccc([C@H](Nc2nccn(-c3cc(C(=O)NC4CC4)ccc3C)c2=O)[C@@H](C)CO)c1 [Example 273, N-Cyclopropyl-3-[3-[[(1R,2R)-3-hydroxy-1-(3-methylphenyl)-2-methylpropyl]amino]-2-oxo-1(2H)-pyrazinyl]-4-methyl-benzamide]
5 | 9.9 | – | Cc1ccc(C(=O)NC2CC2)cc1-n1ccnc(NC(C)(C)c2ccccc2OC[C@H](N)CO)c1=O [Example 305, 3-[3-{[1-(2-{[(2R)-2-Amino-3-hydroxypropyl]oxy}phenyl)-1-methylethyl]amino}-2-oxopyrazin-1(2H)-yl]-N-cyclopropyl-4-methylbenzamide]
6 | 7 | – | Cc1ccc(C(=O)NC2CC2)cc1-n1ccnc(NC(C)(C)Cc2ccccc2)c1=O [Example 65, N-Cyclopropyl-3-[3-[(1,1-dimethyl-2-phenylethyl)amino]-2-oxo-1(2H)-pyrazinyl]-4-methyl-benzamide]
7 | 8.6 | – | Cc1ccccc1[C@H](Nc1nccn(-c2cc(C(=O)NC3CC3)ccc2C)c1=O)[C@@H](C)CN1CCCC1 [Example 275, N-Cyclopropyl-3-[3-[[(1R,2S)-1-(2-methylphenyl)-2-methyl-3-(1-pyrrolidinyl)propyl]amino]-2-oxo-1(2H)-pyrazinyl]-4-methyl-benzamide]
8 | 6.7 | – | Cc1ccc(C(=O)NC2CC2)cc1-n1cc(Cl)nc(NCCc2ccccc2)c1=O [Example 110, 3-[5-Chloro-2-oxo-3-[(2-phenylethyl)amino]-1(2H)-pyrazinyl]-N-cyclopropyl-4-methyl-benzamide]
9 | 9.8 | – | Cc1ccc(C(=O)NC2CC2)cc1-n1ccnc(NC2(c3ccccc3OCCN3CCC[C@H]3C)CC2)c1=O [Example 247, N-Cyclopropyl-4-methyl-3-[3-[[1-[2-[2-[(2R)-2-methyl-1-pyrrolidinyl]ethoxy]phenyl]cyclopropyl]amino]-2-oxo-1(2H)-pyrazinyl]-benzamide]
10 | 7.2 | – | Cc1ccc(C(=O)NC2CC2)cc1-n1cc(Cl)nc(NCc2ccccc2)c1=O [Example 109, 3-[5-Chloro-2-oxo-3-[(phenylmethyl)amino]-1(2H)-pyrazinyl]-N-cyclopropyl-4-methyl-benzamide]
11 | – | 0.126 | Cc1ccc(C(=O)NC2CC2)cc1-n1ccnc(N2CCc3ccccc3C2)c1=O [Example 30, N-Cyclopropyl-3-[3-(3,4-dihydro-2(1H)-isoquinolinyl)-2-oxo-1(2H)-pyrazinyl]-4-methyl-benzamide]
12 | 8.7 | – | Cc1ccc(C(=O)NC2CC2)cc1-n1ccnc(N[C@@H](c2ccccc2)[C@@H](C)CN2CCC(N(C)C)CC2)c1=O [Example 176, N-Cyclopropyl-3-[3-[[(1R,2S)-3-[4-(dimethylamino)-1-piperidinyl]-2-methyl-1-phenylpropyl]amino]-2-oxo-1(2H)-pyrazinyl]-4-methyl-benzamide]
13 | 9 | – | Cc1ccc(C(=O)NC2CC2)cc1-n1ccnc(N[C@@H](c2ccccc2)[C@@H](C)CN2CC[C@H](O)C2)c1=O [Example 190, N-Cyclopropyl-3-[3-[[(1R,2S)-3-[(3S)-3-hydroxy-1-pyrrolidinyl]-2-methyl-1-phenylpropyl]amino]-2-oxo-1(2H)-pyrazinyl]-4-methyl-benzamide]

Reference: US20120214822A1 (ASTRAZENECA AB, priority 2007, published 2012)
